The series deals with Sarcoma 180. Briefly: Antitumor activity, solid Sarcoma 180 (Table I), T/C tumor weight ratio, sacrifice day 10. The format is in vivo, female Swiss white mice. The protocol: The compounds of the invention were tested for anti-tumor activity using our standard screening tumor, solid sarcoma 180 tumer in female Swiss white mice, following standard protocols for this testing as set by the National Cancer Institute. (Cancer Chemotherapy Rep., 25(1962)).
For these tests an S 180 tumor taken from a sacrificed mouse was disected free of superfluous tissue and cut under sterile conditions into approximately 10 milligram size pieces. These tissue pieces were then implanted by trocar in the left axillary region, subcutaneously, in new mice. The mice were, on the average, approximately four weeks old and weighed 18-20 grams. Taking day 0 as the day of implant, the animals were sacrificed on day 10. The tumors were excised and weighed and the ratio of the weights of the tumors in mice in the treated animals to the control set of animals was obtained. This ratio, multiplied by 100, is given as the T/C ratio in Table I.
For the first set of tests the coordination compound was freshly dissolved in sterile distilled water and injected intraperitoneally on day 1 into each of the test mice. The volume of the injection was usually 1/2 ml. In some cases, in order to get an active dose into the animal where the chemical was not soluble in this amount of solvent, a fine dispersion was prepared of the dose needed for the test. Thus, some of our test results were obtained on animals where a slurry of the compound was injected. These are so noted in Table I below. In addition, for some of the compounds, there was injected about 1 ml of solution, either in one single injection, or in 2 injections given a few hours apart of 1/2 ml each. These injections were initially given in 4 different dose levels for each new compound with 6 mice in each dose level. The tests covered a dose range from a low ineffective dose, to an upper dose level which produced some deaths within the time period of the experiment.

[1] abbreviates: 45 mg/kg, single i.p. day 1, vehicle not noted.
The mark [2] stands for this setting: 60 mg/kg, single i.p. day 1, vehicle not noted.
[3] abbreviates: 75 mg/kg, single i.p. day 1, vehicle not noted.
Setting [4] is: 90 mg/kg, single i.p. day 1, vehicle not noted.
The mark [5] stands for this setting: 80 mg/kg, single i.p. day 1, vehicle not noted.
Setting [6] is: 100 mg/kg, single i.p. day 1, vehicle not noted.
[7] abbreviates: 120 mg/kg, single i.p. day 1, vehicle not noted.
The mark [8] stands for this setting: 140 mg/kg, single i.p. day 1, vehicle not noted.
The mark [9] stands for this setting: 160 mg/kg, single i.p. day 1, vehicle not noted.
[10] abbreviates: 180 mg/kg, single i.p. day 1, vehicle not noted.
The mark [11] stands for this setting: 30 mg/kg, single i.p. day 1, solution in H2O.
Where [12] appears, read: 40 mg/kg, single i.p. day 1, solution in H2O.
[13] abbreviates: 50 mg/kg, single i.p. day 1, solution in H2O.
Where [14] appears, read: 60 mg/kg, single i.p. day 1, solution in H2O.
[15] abbreviates: 70 mg/kg, single i.p. day 1, solution in H2O.
[16] abbreviates: 90 mg/kg, single i.p. day 1, solution in H2O.
The mark [17] stands for this setting: 80 mg/kg, single i.p. day 1, solution in H2O.
Setting [18] is: 20 mg/kg, single i.p. day 1, vehicle not noted.
Where [19] appears, read: 40 mg/kg, single i.p. day 1, vehicle not noted.
Where [20] appears, read: 110 mg/kg, single i.p. day 1, vehicle not noted.

Results on eight compounds are retold here after patent publication US4140707A, “Malonato platinum anti-tumor compounds” (priority 1977, dated 1979).

On to `CC(N)CN.O=C([O-])CC(=O)[O-].[Pt+2]` [malonato-1,2 propylenediamineplatinum (II)], for which the “No. of Deaths” value under setting [1] is reported as 0, the “No. of Deaths” value under setting [2] worked out at 1, the “No. of Deaths” value under setting [3] turned out to be 3 and the “No. of Deaths” value under setting [4] came to 5. Also, the T/C turned out to be 50 under setting [1], 9 under setting [2] and 16 under setting [3].
With `CN.CN.O=C([O-])CC(=O)[O-].[Pt+2]` [malonatobis(methylamine) platinum (II)], the “No. of Deaths” value came out at 0 under setting [5]; 0 under setting [6]; 0 under setting [7]; 0 under setting [8]; 1 under setting [9]; 1 under setting [10]. Besides, the T/C under setting [5] is listed as 58; the T/C under setting [6] came to 53; the T/C under setting [7] was 28; the T/C under setting [8] is given as 25; the T/C under setting [9] is reported as 17; the T/C under setting [10] came out at 19.
In the case of `CC1C(=O)[O][Pt]2([NH]CC[NH]2)[O]C1=O` [methylmalonatoethylenediamineplatinum (II)], the “No. of Deaths” value came to 0 under setting [11]; 0 under setting [12]; 0 under setting [13]; 0 under setting [14]; 1 under setting [15]; 1 under setting [16]. Further, the T/C under setting [11] came to 78; the T/C under setting [12] is reported as 80; the T/C under setting [13] was 51; the T/C under setting [14] worked out at 26; the T/C under setting [15] was determined as 20; the T/C under setting [16] was 4.
For the compound `CC1C(=O)[O][Pt]([NH2])([NH2])[O]C1=O` [Methylmalonatodiammineplatinum(II)], the “No. of Deaths” value is, setting by setting: under setting [11], 0; under setting [12], 0; under setting [13], 0; under setting [14], 0; under setting [15], 3/6; under setting [17], 6/6. Besides, the T/C is, setting by setting: under setting [11], 39; under setting [12], 26; under setting [13], 35; under setting [14], 6; under setting [15], 124.
Consider `NCCCN.O=C([O-])CC(=O)[O-].[Pt+2]` [malonato-1,3 propylenediamineplatinum (II)], for which the “No. of Deaths” value under setting [18] came out at 0, the “No. of Deaths” value under setting [19] is recorded as 0, the “No. of Deaths” value under setting [2] is listed as 0 and the “No. of Deaths” value under setting [5] is listed as 1. The T/C is recorded as 69 under setting [18], 79 under setting [19], 21 under setting [2] and 35 under setting [5].
As for `N.N.O=C([O-])C1(C(=O)[O-])CCC1.[Pt+4]` [1,1-cyclobutanedicarboxylate diammineplatinum (II)], the “No. of Deaths” value is, setting by setting: under setting [18], 0; under setting [19], 0; under setting [2], 0; under setting [5], 0; under setting [6], 0; under setting [7], 0. For the same compound, the “No. of Deaths” value under setting [9] came to 4. For the same compound, the T/C under setting [18] stood at 71; the T/C under setting [19] stood at 60; the T/C under setting [2] was found to be 38; the T/C under setting [5] amounted to 42; the T/C under setting [6] is recorded as 69; the T/C under setting [7] is 18. Besides, the T/C under setting [9] was determined as 62.
On to `CCC1C(=O)[O][Pt]2([NH]CC[NH]2)[O]C1=O` [ethylmalonatoethylenediamineplatinum (II)], for which the “No. of Deaths” value is on record as 0 under setting [19]; 0 under setting [2]; 0 under setting [5]; 0 under setting [4]; 1 under setting [6]; 0 under setting [20]. For the same compound, the “No. of Deaths” value under setting [7] was 0. Moreover, the T/C was 72 under setting [19]; 81 under setting [2]; 79 under setting [5]; 47 under setting [4]; 55 under setting [6]; 41 under setting [20]. Also, the T/C under setting [7] was found to be 58.
On to `CCC(C(=O)[O-])C(=O)[O-].N.N.[Pt+2]` [ethylmalontodiammineplatinum(II)], for which the “No. of Deaths” value is, setting by setting: under setting [11], 0; under setting [12], 0; under setting [13], 0; under setting [14], 0; under setting [15], 0; under setting [17], 0. The T/C reads like this: under setting [11], 57; under setting [12], 43; under setting [13], 47; under setting [14], 39; under setting [15], 17; under setting [17], 16.
